From patent publication US5198445A, “Composition and use of substituted 3-thio-2-propynenitriles as industrial antimicrobials” (The Dow Chemical Company, priority 1992, dated 1993)
Values after ≈ are worked out from the molar mass of the structure shown. Read-outs that look alike come from different tables or passages of the source.

Columns and labels:
[1] = Antimicrobial activity of decomposition product; assay type: cell-based
Description: It has also been discovered that the compounds of the present invention may degrade at a pH of 7 or above over an extended time period to compounds which are less antimicrobially active than the original compounds of the present invention.

[2] = test system: Enterobacter aerogenes (Ea); test: MIC in nutrient agar, Enterobacter aerogenes; assay type: cell-based, Enterobacter aerogenes ATCC 13048; conditions: Klebsiella aerogenes
Description: (§1) The minimum inhibitory concentration (MIC) for the compounds listed in Table I is determined for 9 bacteria, using nutrient agar, and 7 yeast and fungi, using malt yeast agar. A one percent solution of the test compound is prepared in a mixture of acetone and water. Nutrient agar is prepared at pH 6.8, representing a neutral medium, and at pH 8.2, representing an alkaline medium. The nutrient agars are prepared by adding 23 g of nutrient agar to one-liter of deionized water. In addition, the alkaline medium is prepared by adjusting a 0.04M solution of N-[tris-(hydroxymethyl)methyl]-glycine buffered deionized water with concentrated sodium hydroxide to a pH of […]. Malt yeast agar is prepared by adding 3 g yeast extract and 45 g malt agar per liter of deionized water. The specific agar is dispensed in 30 ml aliquots into 25×200 mm test tubes, capped and autoclaved for 15 minutes at 115° C. The test tubes containing the agar are cooled in a water bath until the temperature of the agar is 48° C. Then, an appropriate amount of the one percent solution of the test compound is added (except in the controls where no compound is added) to the respective test tubes so that the final concentrations are 500, 250, 100, 50, 25, 10, 5, 2.5, 1.0 and zero parts per million of the test compound in the agar, thus having a known concentration of test compound dispersed therein. The contents of the test tubes are then transferred to respective petri plates. After drying for 24 hours, the petri plates containing nutrient agar are inoculated with bacteria and those containing malt yeast agar are inoculated with yeast and fungi.
(§2) The inoculation with bacteria is accomplished by using the following procedure. Twenty-four hour-cultures of each of the bacteria are prepared by incubating the respective bacteria in tubes containing nutrient broth for 24 hours at 30° C. in a shaker. Dilutions of each of the 24 hour-cultures are made so that nine separate suspensions (one for each of the nine test bacteria) are made, each containing 10^8 colony forming units (CFU) per ml of suspension of a particular bacteria. Aliquots of 0.3 ml of each of the bacterial suspensions are used to fill the individual wells of Steer's Replicator. For each microbial suspension, 0.3 ml was used to fill three wells (i.e., three wells of 0.3 ml each) so that for the nine different bacteria, 27 wells are filled. The Steer's Replicator is then used to inoculate both the neutral and alkaline pH nutrient agar petri plates.
(§3) The inoculated petri plates are incubated at 30° C. for 48 hours and then read to determine if the test compound which is incorporated into the agar prevented growth of the respective bacteria.
(§4) Table II lists the bacteria, yeast and fungi used in the MIC test described above along with their respective American Type Culture Collection (ATCC) identification numbers.
(§5) The following MIC and MEC antimicrobial tests, whose results are shown in Tables XIII-XVII, are performed using the same methods as described hereinabove.

Trichoderma viride (Tv) = test: MIC in malt yeast agar, Trichoderma viride; assay type: cell-based, Trichoderma viride ATCC 8678; conditions: read-out: Minimum Inhibitory Concentration, Tv
Description: as §1
(§6) The inoculation with the yeast and fungi is accomplished as follows. Cultures of yeast and fungi are incubated for seven days on malt yeast agar at 30° C. These cultures are used to prepare suspensions by the following procedure. A suspension of each organism is prepared by adding 10 ml of sterile saline and 10 microliters of octylphenoxy polyethoxy ethanol (TRITON® X-100, a trademark of Rohm & Haas Company) to the agar slant of yeast or fungi. The sterile saline/octylphenoxy polyethoxy ethanol solution is then agitated with a sterile swab to suspend the microorganism grown on the slant. Each resulting suspension is diluted into sterile saline (1 part suspension: 9 parts sterile saline). Aliquots of these dilutions are placed in individual wells of Steer's Replicator and petri plates inoculated as previously described. The petri plates are incubated at 30° C. and read after 48 hours for yeast and 72 hours for fungi.
as §4, §5

Aspergillus niger (An) = test: MIC in malt yeast agar, Aspergillus niger; assay type: cell-based, Aspergillus niger ATCC 16404; conditions: read-out: Minimum Inhibitory Concentration, An
Description: as §1, §6, §4, §5

[3] = test system: Klebsiella pneumoniae (Kp); test: MIC in nutrient agar, Klebsiella pneumoniae; assay type: cell-based, Klebsiella pneumoniae ATCC 8308
Description: as §1, §2, §3, §4, §5

[4] = test system: Pseudomonas aeruginosa (Pa); test: MIC in nutrient agar, Pseudomonas aeruginosa; assay type: cell-based, Pseudomonas aeruginosa ATCC 10145
Description: as §1, §2, §3, §4, §5

Escherichia coli (Ec) = test: MIC in nutrient agar, Escherichia coli; assay type: cell-based, Escherichia coli ATCC 11229; conditions: Escherichia coli
Description: as §1, §2, §3, §4, §5

Proteus vulgaris (Pv) = test: MIC in nutrient agar, Proteus vulgaris; assay type: cell-based, Proteus vulgaris ATCC 881
Description: as §1, §2, §3, §4, §5

[5] = test system: Penicillium chrysogenum (Pc); test: MIC in malt yeast agar, Penicillium chrysogenum; assay type: cell-based, Penicillium chrysogenum ATCC 9480; conditions: read-out: Minimum Inhibitory Concentration, Pc
Description: as §1, §6, §4, §5

[6] = test system: Pseudomonas aeruginosa (PRD-10); test: MIC in nutrient agar, Pseudomonas aeruginosa PRD-10; assay type: cell-based, Pseudomonas aeruginosa ATCC 15442; conditions: Pseudomonas aeruginosa
Description: as §1, §2, §3, §4, §5

[7] = test system: Staphylococcus aureus (Sa); test: MIC in nutrient agar, Staphylococcus aureus; assay type: cell-based, Staphylococcus aureus ATCC 6538; conditions: Staphylococcus aureus
Description: as §1, §2, §3, §4, §5

Candida albicans (Ca) = test: MIC in malt yeast agar, Candida albicans; assay type: cell-based, Candida albicans ATCC 10231; conditions: read-out: Minimum Inhibitory Concentration, Ca
Description: as §1, §6, §4, §5

[8] = test system: Saccharomyces cerevisiae (Sc); test: MIC in malt yeast agar, Saccharomyces cerevisiae; assay type: cell-based, Saccharomyces cerevisiae ATCC 4105; conditions: read-out: Minimum Inhibitory Concentration, Sc
Description: as §1, §6, §4, §5

Fusarium oxysporum (Fo) = test: MIC in malt yeast agar, Fusarium oxysporum; assay type: cell-based, Fusarium oxysporum ATCC 48112; conditions: read-out: Minimum Inhibitory Concentration, Fo
Description: as §1, §6, §4, §5

[9] = test system: Salmonella choleraesuis (Sc); test: MIC in nutrient agar, Salmonella choleraesuis; assay type: cell-based, Salmonella choleraesuis ATCC 10708; conditions: Salmonella enterica, CHOLERAESUIS
Description: as §1, §2, §3, §4, §5

Bacillus subtilis (Bs) = test: MIC in nutrient agar, Bacillus subtilis; assay type: cell-based, Bacillus subtilis ATCC 8473; conditions: Bacillus subtilis
Description: as §1, §2, §3, §4, §5

[10] = test system: Aureobasidium pullulan (Ap); test: MIC in malt yeast agar, Aureobasidium pullulan; assay type: cell-based, Aureobasidium pullulan ATCC 16622; conditions: read-out: Minimum Inhibitory Concentration, Ap
Description: as §1, §6, §4, §5

In the case of `CSC(=CC#N)SC` [3,3-bis(methylthio)propenenitrile], the “antimicrobial activity of decomposition product” value [1] is reported as “virtually inactive as an antimicrobial”.
With `CS/C=C(/Cl)C#N` [Compound H, E isomer of 2-chloro-3-(methylthio)-2-propenenitrile] the MIC ([2]; pH 6.8, read-out: Minimum Inhibitory Concentration, Ea) was > 500 µg/mL, the MIC ([2]; pH 8.2, read-out: Minimum Inhibitory Concentration, Ea) was 500 µg/mL (≈ 3.74 mM) and the MIC (Trichoderma viride (Tv)) was 250 µg/mL (≈ 1.87 mM). The MIC (Aspergillus niger (An)) was 250 µg/mL (≈ 1.87 mM), the MIC ([3]; pH 6.8, read-out: Minimum Inhibitory Concentration, Kp) was > 500 µg/mL and the MIC ([3]; pH 8.2, read-out: Minimum Inhibitory Concentration, Kp) was 500 µg/mL (≈ 3.74 mM). For the same compound, the MIC ([4]; pH 6.8, read-out: Minimum Inhibitory Concentration, Pa) was > 500 µg/mL, the MIC ([4]; pH 8.2, read-out: Minimum Inhibitory Concentration, Pa) was 250 µg/mL (≈ 1.87 mM) and the MIC (Escherichia coli (Ec); pH 6.8, read-out: Minimum Inhibitory Concentration, Ec) was > 500 µg/mL. The MIC (Escherichia coli (Ec); pH 8.2, read-out: Minimum Inhibitory Concentration, Ec) was 500 µg/mL (≈ 3.74 mM), the MIC (Proteus vulgaris (Pv); pH 6.8, read-out: Minimum Inhibitory Concentration, Pv) was > 500 µg/mL and the MIC (Proteus vulgaris (Pv); pH 8.2, read-out: Minimum Inhibitory Concentration, Pv) was 250 µg/mL (≈ 1.87 mM). The MIC [5] was 100 µg/mL (≈ 0.748 mM), the MIC ([6]; pH 6.8, read-out: Minimum Inhibitory Concentration, PRD) was > 500 µg/mL and the MIC ([6]; pH 8.2, read-out: Minimum Inhibitory Concentration, PRD) was 250 µg/mL (≈ 1.87 mM). For the same compound, the MIC ([7]; pH 6.8, read-out: Minimum Inhibitory Concentration, Sa) was > 500 µg/mL, the MIC ([7]; pH 8.2, read-out: Minimum Inhibitory Concentration, Sa) was 500 µg/mL (≈ 3.74 mM) and the MIC (Candida albicans (Ca)) was 250 µg/mL (≈ 1.87 mM). For the same compound, the MIC [8] was 500 µg/mL (≈ 3.74 mM), the MIC (Fusarium oxysporum (Fo)) was 100 µg/mL (≈ 0.748 mM) and the MIC ([9]; pH 6.8, read-out: Minimum Inhibitory Concentration, Sc) was > 500 µg/mL. For the same compound, the MIC ([9]; pH 8.2, read-out: Minimum Inhibitory Concentration, Sc) was 500 µg/mL (≈ 3.74 mM), the MIC (Bacillus subtilis (Bs); pH 6.8, read-out: Minimum Inhibitory Concentration, Bs) was > 500 µg/mL and the MIC (Bacillus subtilis (Bs); pH 8.2, read-out: Minimum Inhibitory Concentration, Bs) was 500 µg/mL (≈ 3.74 mM). It also gave an MIC [10] of 250 µg/mL (≈ 1.87 mM).
